{
  "source": "patent US8932614B2",
  "about": "“Incorporation of particulate ceragenins in polymers” (priority 2011, dated 2015)",
  "key": {"biofilms": {"test_system": "biofilms", "assay": "Coated bone plates implanted into animals and challenged with biofilms", "assay_type": "in vivo, sheep", "details": "CSA-13 coated stainless steel plates", "excerpt": "Similar results were obtained in vivo when bone plates were coated with ceragenin-containing composites and were compared with bone plates coated with polymer only, then implanted into animals and challenged with biofilms. […] In contrast, 100% of animals who received polymer-only bone plates developed infection when they were infected with biofilms and bacterial loads in and around the infection site exceeded 10^6 bacterial cells per gram of tissue, which is well above the standard for infection.\nIn addition, histological sections were compared from animals receiving bone plates. […] Two sheep in Group 1 were euthanized after one week due to the severity of their infections. […] And while inflammation was present in sheep from all groups, with the highest level of inflammation being present in Group 1 sheep, this is a normal response to surgical trauma."}, "MRSA": {"test_system": "MRSA", "assay": "Coated titanium bone plugs in broth challenged with MRSA (planktonic, FIG. 4)", "assay_type": "cell-based, methicillin-resistant Staphylococcus aureus", "details": "for viable bacteria per tube: 4 and 8 hour time points, challenge ~5×10^8 CFU MRSA; for viable bacteria: 24 hour time point", "method": "To confirm that medical devices coated with the ceragenin-containing composites described herein are able to kill bacteria, various groups of titanium bone plugs were prepared. The titanium bone plugs were either uncoated, coated with MED-6607 ceragenin-containing silicone polymer prepared as described above, or with MED-6607 silicone polymer only. In the groups of bone plugs that were coated with ceragenin-containing silicone polymer, the silicone either contained 16 wt %, 18 wt %, or 20 wt % ceragenin. Specifically, the groups of bone plugs were as follows: • 0%—a titanium bone plug coated with silicone polymer with no ceragenin • 16%—a titanium bone plug coated with silicone polymer containing 16% CSA-13 (w/w) • 18%—a titanium bone plug coated with silicone polymer containing 18% CSA-13 (w/w) • […] • titanium—a titanium bone plug with no coating\nThe bone plugs were placed into broth (e.g., 30 ml of broth) and challenged with ˜5×10^8 colony forming units (CFU) of MRSA. In addition, a broth/MRSA-only control was prepared. Samples were withdrawn from each of the tubes at 0, 1, 2, 4, 8, 24, and 48 hours. The data for the 0, 1, 2, 4, 8, and 24 hour data points are graphed in FIG. 4.\nIn contrast, the 16% tubes each contained about 1×10^3 CFU and the 20% tubes each contained about 5×10^2 CFU."}},
  "data": [
    {"compound": "CCCCCCCCNCCC[C@@H](C)[C@H]1CC[C@H]2[C@@H]3[C@H](OCCCN)C[C@@H]4C[C@H](OCCCN)CC[C@]4(C)[C@H]3C[C@H](OCCCN)[C@]12C", "note": "[CSA-13]", "values": [
      {"measurement": "sheep showing signs of osteomyelitis (histology)", "setting": "biofilms; Group 2 (n=9): biofilm", "value": "none"},
      {"measurement": "sheep showing signs of osteomyelitis (histology)", "setting": "biofilms; Group 4 (n=8): no biofilm", "value": "none"},
      {"measurement": "viable bacteria per tube", "setting": "MRSA; bone plug coated with silicone containing 16% CSA-13 (w/w)", "value": "about 1×10^3 CFU"},
      {"measurement": "viable bacteria", "setting": "MRSA; bone plug coated with silicone containing 16% CSA-13", "value": "considerable numbers of viable bacteria"},
      {"measurement": "viable bacteria per tube", "setting": "MRSA; bone plug coated with silicone containing 18% CSA-13 (w/w)", "value": "essentially no viable bacterial"},
      {"measurement": "viable bacteria per tube", "setting": "MRSA; bone plug coated with silicone containing 20% CSA-13 (w/w)", "value": "about 5×10^2 CFU"},
      {"measurement": "viable bacteria", "setting": "MRSA; bone plug coated with silicone containing 20% CSA-13, compared with 18%", "value": "caught up to the 18"},
      {"measurement": "numbers of viable bacteria (CFU/ml) over time", "setting": "MRSA; tubes containing a bone plug with CSA-13 (16%, 18% and 20%), 0-24 h", "value": "dropped dramatically"}
    ]}
  ]
}
